Where a name gives a salt, the structure may show the parent alone.
Legend:
[1] = system: panel of breast cancer cell lines; experiment: Compound A with targeted agents and chemotherapies, 72-hour in vitro proliferation assays; type: cell-based; conditions: 72-hour proliferation
[2] = system: panel of haematalogical cancer cell lines; experiment: Compound A with BTK inhibitors, 72-hour in vitro proliferation assays; type: cell-based; conditions: combination Compound A × listed BTK inhibitor, 72-hour proliferation

In the case of `CC/C(=C(\c1ccccc1)c1ccc(OCCN(C)C)cc1)c1ccccc1` [Tamoxifen Citrate], the “Best CI” value ([1]; AU565 cell line, compound A × partner) was 0.63, the “Best CI” value ([1]; BT-20 cell line, compound A × partner) was 1.22 and the “Best CI” value ([1]; BT-474 cell line, compound A × partner) was 0.67. For the same molecule, the “Best CI” value ([1]; BT-549 cell line, compound A × partner) was 0.42, the “Best CI” value ([1]; CAL-51 cell line, compound A × partner) was 1.06 and the “Best CI” value ([1]; CAL-85-1 cell line, compound A × partner) was 0.49. The “Best CI” value ([1]; CAL-148 cell line, compound A × partner) was 0.69, the “Best CI” value ([1]; CAMA-1 cell line, compound A × partner) was 0.27 and the “Best CI” value ([1]; DU-4475 cell line, compound A × partner) was 0.80. The “Best CI” value ([1]; EVSA-T cell line, compound A × partner) was 0.68, the “Best CI” value ([1]; HCC38, compound A × partner) was 0.98 and the “Best CI” value ([1]; HCC70, compound A × partner) was 0.50. The “Best CI” value ([1]; HCC1143, compound A × partner) was 0.19, the “Best CI” value ([1]; HCC1569, compound A × partner) was 0.50 and the “Best CI” value ([1]; HCC1806, compound A × partner) was 0.84. The “Best CI” value ([1]; HCC1937, compound A × partner) was 1.02, the “Best CI” value ([1]; HCC1954, compound A × partner) was 0.18 and the “Best CI” value ([1]; HCC2218, compound A × partner) was 0.45. The “Best CI” value ([1]; HDQ-P1, compound A × partner) was 0.94, the “Best CI” value ([1]; HMC-1-8, compound A × partner) was 0.58 and the “Best CI” value ([1]; JIMT-1, compound A × partner) was 0.38. The “Best CI” value ([1]; KPL-1, compound A × partner) was 0.54, the “Best CI” value ([1]; MCF7 cells, Compound A × partner agent) was 0.41 and the “Best CI” value ([1]; MDA-MB-175-VII cells, Compound A × partner agent) was 0.36. For the same molecule, the “Best CI” value ([1]; MDA-MB-231 cells, Compound A × partner agent) was 1.06, the “Best CI” value ([1]; MDA-MB-361 cells, Compound A × partner agent) was 0.48 and the “Best CI” value ([1]; MDA-MB-436 cells, Compound A × partner agent) was 0.30. For the same molecule, the “Best CI” value ([1]; MDA-MB-453 cells, Compound A × partner agent) was 0.45, the “Best CI” value ([1]; MDA-MB-468 cells, Compound A × partner agent) was 0.61 and the “Best CI” value ([1]; SK-BR-3 cells, combination of compound A with the named agent) was 0.66. The “Best CI” value ([1]; SUM159PT cells, combination of compound A with the named agent) was 0.20, the “Best CI” value ([1]; T47D cells, combination of compound A with the named agent) was 0.42 and the “Best CI” value ([1]; ZR-75-1 cells, combination of compound A with the named agent) was 0.99. For the same molecule, the “Best CI” value ([1]; ZR-75-30 cells, combination of compound A with the named agent) was 1.00.

In the case of `CC#CC(=O)N1CC[C@@H](n2c(=O)n(-c3ccc(Oc4ccccc4)cc3)c3c(N)ncnc32)C1` [Tirabrutinib], the “Best CI” value ([2]; HBL-1 cells) was 0.06, the “Best CI Level” value ([2]; HBL-1 cells) was 60 and the “Bliss Volume” value ([2]; HBL-1 cells) was 3.09. For the same molecule, the “HSA volume” value ([2]; HBL-1 cells) was 8.94, the “Loewe Volume” value ([2]; HBL-1 cells) was 8.17 and the “Synergy Score” value ([2]; HBL-1 cells) was 7.02. The “Best CI” value ([2]; OCI-Ly10 cells) was 0.63, the “Best CI Level” value ([2]; OCI-Ly10 cells) was 80 and the “Bliss Volume” value ([2]; OCI-Ly10 cells) was 0.21. For the same molecule, the “HSA volume” value ([2]; OCI-Ly10 cells) was 3.22, the “Loewe Volume” value ([2]; OCI-Ly10 cells) was 1.63 and the “Synergy Score” value ([2]; OCI-Ly10 cells) was 2.72. For the same molecule, the “Best CI” value ([2]; SU-DHL-2 cells) was 0.42, the “Best CI Level” value ([2]; SU-DHL-2 cells) was 20 and the “Bliss Volume” value ([2]; SU-DHL-2 cells) was 0.39. For the same molecule, the “HSA volume” value ([2]; SU-DHL-2 cells) was −0.97, the “Loewe Volume” value ([2]; SU-DHL-2 cells) was 1.23 and the “Synergy Score” value ([2]; SU-DHL-2 cells) was 0.98. The “Best CI” value ([2]; SU-DHL-4 cells) was 0.84, the “Best CI Level” value ([2]; SU-DHL-4 cells) was 20 and the “Bliss Volume” value ([2]; SU-DHL-4 cells) was 1.52. The “HSA volume” value ([2]; SU-DHL-4 cells) was −2.97, the “Loewe Volume” value ([2]; SU-DHL-4 cells) was −0.81 and the “Synergy Score” value ([2]; SU-DHL-4 cells) was 1.10. For the same molecule, the “Best CI” value ([2]; SU-DHL-8 cells) was 0.45, the “Best CI Level” value ([2]; SU-DHL-8 cells) was 20 and the “Bliss Volume” value ([2]; SU-DHL-8 cells) was 4.13. For the same molecule, the “HSA volume” value ([2]; SU-DHL-8 cells) was −6.01, the “Loewe Volume” value ([2]; SU-DHL-8 cells) was −3.72 and the “Synergy Score” value ([2]; SU-DHL-8 cells) was 0.60. The “Best CI” value ([2]; TMD8 cells) was 0.87, the “Best CI Level” value ([2]; TMD8 cells) was 20 and the “Bliss Volume” value ([2]; TMD8 cells) was 1.28. The “HSA volume” value ([2]; TMD8 cells) was 3.05, the “Loewe Volume” value ([2]; TMD8 cells) was 1.96 and the “Synergy Score” value ([2]; TMD8 cells) was 2.92. For the same molecule, the “Best CI” value ([2]; U-2932 cells) was 0.62, the “Best CI Level” value ([2]; U-2932 cells) was 65 and the “Bliss Volume” value ([2]; U-2932 cells) was 1.92. For the same molecule, the “HSA volume” value ([2]; U-2932 cells) was 4.85, the “Loewe Volume” value ([2]; U-2932 cells) was 4.66 and the “Synergy Score” value ([2]; U-2932 cells) was 3.69.

Source: US11931424B2, “Combination MCL-1 inhibitors with anti-body drug conjugates” (Gilead Sciences, Inc., priority 2021, dated 2024)
